Each block holds one compound with its values, some of them ahead of it.
Target: T1, ERα (Homo sapiens, UniProt P03372)
T1 construct: host or cells: MCF7
T1 sequence (P03372 1-595): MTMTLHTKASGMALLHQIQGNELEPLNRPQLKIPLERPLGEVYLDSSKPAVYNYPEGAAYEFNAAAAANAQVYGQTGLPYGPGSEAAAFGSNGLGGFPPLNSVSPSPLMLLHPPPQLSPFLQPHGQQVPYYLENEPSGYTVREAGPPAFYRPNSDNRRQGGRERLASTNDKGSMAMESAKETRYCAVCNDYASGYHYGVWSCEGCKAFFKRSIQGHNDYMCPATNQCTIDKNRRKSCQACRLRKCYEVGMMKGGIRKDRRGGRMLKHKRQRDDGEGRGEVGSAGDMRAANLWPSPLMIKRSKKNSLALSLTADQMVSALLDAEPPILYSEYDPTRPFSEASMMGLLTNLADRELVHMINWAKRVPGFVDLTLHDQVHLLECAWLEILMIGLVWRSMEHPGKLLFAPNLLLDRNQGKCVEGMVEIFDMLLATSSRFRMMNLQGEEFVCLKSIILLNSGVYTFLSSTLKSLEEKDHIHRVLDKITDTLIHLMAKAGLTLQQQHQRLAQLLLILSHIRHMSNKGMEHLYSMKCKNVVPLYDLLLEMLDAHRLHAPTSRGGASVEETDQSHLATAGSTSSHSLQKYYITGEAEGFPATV
Assay: Estrogen receptor degradation activity: breast cancer cell ERα in cell western assay (MCF7 cells)
Assay type: cell-based
Conditions: for % Degradation At 0.3 μM: 4 hours, relative to fulvestrant 0.1 μM positive control; for DC50: 4 hours post compound addition, concentration which degrades 50% of the estrogen receptor, read-out: Degradation IC50
How it was run: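 Compounds were applied to MCF7 cells in stripped-serum, phenol red-free medium for 4 h at final 0.3–0.0000018 μM, with fulvestrant (0.1 μM) as control. Value: IC50 (nM) for 50% ERα degradation.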

SMILES: NC(c1ccc(C2=C(c3ccc(Cl)cc3Cl)CCCc3cc(C(=O)O)ccc32)cc1)C1CN(CCCF)C1 (single isomer, unassigned; isomer 1) [Example 243, 9-(4-(amino(1-(3-fluoropropyl)azetidin-3-yl)methyl)phenyl)-8-(2,4-dichlorophenyl)-6,7-dihydro-5H-benzo[7]annulene-3-carboxylic Acid Isomer 1]
% Degradation At 0.3 μM: 78%
DC50: 15.6 nM

SMILES: O=C([O-])c1ccc2c(c1)OCCC(c1ccc(F)cc1Cl)=C2c1ccc(CC2CN(CCCF)C2)cc1.[Na+] [Example 264, sodium 4-(2-chloro-4-fluorophenyl)-5-(4-((1-(3-fluoropropyl)azetidin-3-yl)methyl)phenyl)-2,3-dihydrobenzo[b]oxepine-8-carboxylate]
% Degradation At 0.3 μM: 95%
DC50: 1.1 nM

SMILES: Oc1c(F)cc2c(c1F)CCCC(c1ccc(Cl)cc1Cl)=C2c1ccc(CC2CN(CCCF)C2)cc1 [Example 305, 8-(2,4-dichlorophenyl)-2,4-difluoro-9-(4-((1-(3-fluoropropyl)azetidin-3-yl)methyl)phenyl)-6,7-dihydro-5H-benzo[7]annulen-3-ol]
% Degradation At 0.3 μM: 85%
DC50: 1.2 nM

SMILES: CC1(C)CCC(C2=C(c3ccc(CC4CN(CCCF)C4)cc3)c3ccc(C(=O)O)cc3CCC2)CC1.Cl [Example 13, 8-(4,4-dimethylcyclohexyl)-9-(4-((1-(3-fluoropropyl)azetidin-3-yl)methyl)phenyl)-6,7-dihydro-5H-benzo[7]annulene-3-carboxylic acid]
% Degradation At 0.3 μM: 85%
DC50: 0.3 nM

SMILES: O=C(O)c1ccc2c(c1)SCC(c1ccc(F)cc1F)=C2c1ccc(CC2CN(CCCF)C2)cc1 [Example 314, 3-(2,4-difluorophenyl)-4-(4-((1-(3-fluoropropyl)azetidin-3-yl)methyl)phenyl)-2H-thiochromene-7-carboxylic acid]
% Degradation At 0.3 μM: 87%
DC50: 3 nM

SMILES: CC(O)(c1ccc(C2=C(c3ccc(Cl)cc3Cl)CCCc3cc(C(=O)O)ccc32)cc1)C1CN(CCCF)C1.Cl (single isomer, unassigned; isomer 1) [Example 235, 8-(2,4-dichlorophenyl)-9-(4-(1-(1-(3-fluoropropyl)azetidin-3-yl)-1-hydroxyethyl)phenyl)-6,7-dihydro-5H-benzo[7]annulene-3-carboxylic acid, Hydrochloride Isomer 1]
% Degradation At 0.3 μM: 62%
DC50: 4.5 nM

SMILES: Cc1ccc(C2=C(c3ccc(CC4CN(CCCF)C4)cc3)c3cc(F)c(O)c(F)c3CCC2)c(Cl)c1 [Example 265, 8-(2-chloro-4-methylphenyl)-2,4-difluoro-9-(4-((1-(3-fluoropropyl)azetidin-3-yl)methyl)phenyl)-6,7-dihydro-5H-benzo[7]annulen-3-ol]
% Degradation At 0.3 μM: 83%
DC50: 0.4 nM

SMILES: CC(O)(c1ccc(C2=C(c3ccc(Cl)cc3Cl)CCCc3cc(C(=O)O)ccc32)cc1)C1CN(CCCF)C1.Cl (single isomer, unassigned; isomer 2) [Example 236, 8-(2,4-dichlorophenyl)-9-(4-(1-(1-(3-fluoropropyl)azetidin-3-yl)-1-hydroxyethyl)phenyl)-6,7-dihydro-5H-benzo[7]annulene-3-carboxylic Acid, Hydrochloride Isomer 2]
% Degradation At 0.3 μM: 100%
DC50: 0.4 nM

SMILES: CC1CCc2cc(C(=O)O)ccc2C(c2ccc(CC3CN(CCCF)C3)cc2)=C1c1ccc(Cl)cc1Cl (single isomer, unassigned) [Example 303, 8-(2,4-dichlorophenyl)-9-(4-((1-(3-fluoropropyl)azetidin-3-yl)methyl)phenyl)-7-methyl-6,7-dihydro-5H-benzo[7]annulene-3-carboxylic acid]
% Degradation At 0.3 μM: 90%
DC50: 0.4 nM

Now from value to compound:

% Degradation At 0.3 μM: 89%
DC50: 0.3 nM
SMILES: O=C(O)c1ccc2c(c1)CCCC(c1c(F)cccc1C(F)(F)F)=C2c1ccc(CC2CN(CCCF)C2)cc1 [Example 31, 8-(2-fluoro-6-(trifluoromethyl)phenyl)-9-(4-((1-(3-fluoropropyl)azetidin-3-yl)methyl)phenyl)-6,7-dihydro-5H-benzo[7]annulene-3-carboxylic acid]

% Degradation At 0.3 μM: 85%
DC50: 1.4 nM
SMILES: Oc1ccc2c(c1)CCCC(c1ccc(Cl)cc1Cl)=C2c1ccc(CC2CN(CCCF)C2)cc1 [Example 254, 8-(2,4-dichlorophenyl)-9-(4-((1-(3-fluoropropyl)azetidin-3-yl)methyl)phenyl)-6,7-dihydro-5H-benzo[7]annulen-3-ol]

% Degradation At 0.3 μM: 93%
DC50: 0.4 nM
SMILES: Cc1c(C2=C(c3ccc(CC4CN(CCC(F)F)C4)cc3)c3ccc(C(=O)O)cc3CCC2)ccc(Cl)c1F [Example 292, 8-(4-chloro-3-fluoro-2-methylphenyl)-9-(4-((1-(3,3-difluoropropyl)azetidin-3-yl)methyl)phenyl)-6,7-dihydro-5H-benzo[7]annulene-3-carboxylic acid]

% Degradation At 0.3 μM: 88%
DC50: 0.3 nM
SMILES: Cc1ccc(C2=C(c3ccc(CC4CN(CCCF)C4)cc3)c3ccc(C(=O)O)cc3CCC2)c(F)c1F.Cl [Example 210, 8-(2,3-difluoro-4-methylphenyl)-9-(4-((1-(3-fluoropropyl)azetidin-3-yl)methyl)phenyl)-6,7-dihydro-5H-benzo[7]annulene-3-carboxylic acid hydrochloride]

% Degradation At 0.3 μM: 82%
DC50: 0.3 nM
SMILES: Cc1cccc(C2=C(c3ccc(CC4CN(CCC(F)F)C4)cc3)c3ccc(C(=O)O)cc3CCC2)c1Cl [Example 277, 8-(2-chloro-3-methylphenyl)-9-(4-((1-(3,3-difluoropropyl)azetidin-3-yl)methyl)phenyl)-6,7-dihydro-5H-benzo[7]annulene-3-carboxylic acid]

% Degradation At 0.3 μM: 84%
DC50: 0.2 nM
SMILES: Cc1cc(F)ccc1C1=C(c2ccc(CC3CN(CCC(F)F)C3)cc2)c2ccc(C(=O)O)cc2CCC1 [Example 279, 9-(4-((1-(3,3-difluoropropyl)azetidin-3-yl)methyl)phenyl)-8-(4-fluoro-2-methylphenyl)-6,7-dihydro-5H-benzo[7]annulene-3-carboxylic acid]

% Degradation At 0.3 μM: 84%
DC50: 0.8 nM
SMILES: O=C(O)c1ccc2c(c1)CCCC(c1ncc(Cl)cc1C(F)(F)F)=C2c1ccc(CC2CN(CCC(F)F)C2)cc1 [Example 291, 8-(5-chloro-3-(trifluoromethyl)pyridin-2-yl)-9-(4-((1-(3,3-difluoropropyl)azetidin-3-yl)methyl)phenyl)-6,7-dihydro-5H-benzo[7]annulene-3-carboxylic acid]

% Degradation At 0.3 μM: 86%
DC50: 0.3 nM
SMILES: O=C(O)c1ccc2c(c1)CCCC(c1cccc(Cl)c1C(F)(F)F)=C2c1ccc(CC2CN(CCC(F)F)C2)cc1 [Example 280, 8-(3-chloro-2-(trifluoromethyl)phenyl)-9-(4-((1-(3,3-difluoropropyl)azetidin-3-yl)methyl)phenyl)-6,7-dihydro-5H-benzo[7]annulene-3-carboxylic acid]

% Degradation At 0.3 μM: 83%
DC50: 0.4 nM
SMILES: Cl.O=C(O)c1ccc2c(c1)CCCC(c1ccccc1)=C2c1ccc(CC2CN(CCCF)C2)cc1 [Example 1, 9-(4-((1-(3-Fluoropropyl)azetidin-3-yl)methyl)phenyl)-8-phenyl-6,7-dihydro-5H-benzo[7]annulene-3-carboxylic Acid Hydrochloride]
